Results: patent US9550752B2, “Triazolinthione derivatives” (priority 2013, dated 2017)
Read-outs that look alike come from different tables or passages of the source. Marks after values point to notes of the source that are not given here.

[1] = method [a]: pH 2.7, Table 4, formula (XII)
[2] = method [a]: pH 2.7, Table 3, formula (V)
[3] = method [a]: pH 2.7, 0.1% formic acid in water/acetonitrile, Table 1, formula (I)
[4] = method [b]: pH 7.8, Table 3, formula (V)

LogP (pH 2.7)	SMILES	also measured
	CC(C)(C)C1(Cc2cc(F)ncc2Cl)CO1 (centres unmarked) [XII-38]	LogP [1]: 3.65^[a]
	CC(C)C(C)(C)C(=O)Cc1ccncc1Cl [Example V-18]	LogP [2]: 3.00^[a]
1.46^[a]	OC(Cc1ccncc1Cl)(Cn1cncn1)C1CCC1 (centres unmarked) [XXI-82]	
	CC(C)C(C)(C)C1(Cc2ccnc(Cl)c2)CO1 (centres unmarked) [XII-21]	LogP [1]: 3.94^[a]
	CCC(C)(C)C1(Cc2cc(F)ncc2Cl)CO1 (centres unmarked) [XII-40]	LogP [1]: 4.17^[a]
	CC(C)(C)C1(Cc2cnc3ccccc3c2)CO1 (centres unmarked) [XII-7]	LogP [1]: 1.86^[a]
	CC(C)(C)C1(Cc2ccnc(Cl)c2)CO1 (centres unmarked) [XII-22]	LogP [1]: 3.06^[a]
1.90^[a]	CCOC(C)(C)C(O)(Cc1ccncc1Cl)Cn1cncn1 (racemic) [XXI-129]	LogP (pH 7.8): 2.04^[b];
2.39^[a]	CC(C)(C)C(O)(Cc1cc(F)ncc1Cl)Cn1cncn1 (racemic) [XXI-126]	
2.06^[a]	OC(Cc1cc(Cl)ncc1F)(Cn1cncn1)C1(Cl)CC1 (racemic) [XXI-45]	
2.29^[a]	OC(CCc1ccccc1Cl)(Cc1ccncc1Cl)Cn1cncn1 (centres unmarked) [XXI-73]	
2.01^[a]	CC(C)(C)C(O)(Cc1nccnc1Cl)Cn1cncn1 (racemic) [XXI-115]	
3.53^[a]	Cc1cccc2cc(CC(O)(Cn3cncn3)C3(Cl)CC3)c(Cl)nc12 (centres unmarked) [XXI-89]	
3.08^[a]	OC(Cc1cc(Oc2ccc(Cl)cc2)nnc1Cl)(Cn1cncn1)C1(Cl)CC1 (racemic) [XXI-60]	
1.39^[a]	CC(C)(C)C(O)(Cc1cnccn1)Cn1cncn1 (racemic) [XXI-118]	
	CCC(C)(C)C1(Cc2cc(Cl)ncc2F)CO1 (centres unmarked) [XII-27]	LogP [1]: 3.89^[a]
	CC(C)(C)C1(Cc2ccncc2F)CO1 (centres unmarked) [XII-12]	LogP [1]: 2.31^[a]
	CC(C)(C)C1(Cc2ccncc2Cl)CO1 (centres unmarked) [XII-10]	LogP [1]: 2.80^[a]
0.63^[a]	Cc1cccc(CC(O)(Cn2cncn2)C(C)(C)C)n1 (racemic) [XXI-120]	
1.58^[a]	CC(CF)(CF)C(O)(Cc1ccncc1F)Cn1ncnc1S (centres unmarked) [Example I-22]	
	OC(Cc1cc(Cl)nc(Cl)c1)(Cn1ncnc1S)C1(Cl)CC1 (centres unmarked) [Example I-8]	LogP [3]: 3.10^[a]
1.73^[a]	CCC(C)(C)C(O)(Cc1ccncc1F)Cn1cncn1 (racemic) [XXI-104]	

LogP (pH 2.7)	SMILES	also measured
2.42^[a]	OC(Cc1cccc(Cl)c1)(Cc1ccnc(Cl)c1)Cn1cncn1 (racemic) [XXI-42]	
	CCC(C)(CC)C(=O)Cc1ccncc1Cl [Example V-17]	LogP [2]: 3.04^[a]
2.64^[a]	CC(C)(C)C(O)(Cc1cc(Cl)nc(Cl)c1)Cn1cncn1 (racemic) [XXI-106]	
1.58^[a]	CC(C)(C)C(O)(Cc1cnc2ccccc2c1)Cn1ncnc1S (centres unmarked) [Example I-5]	
	OC(Cc1ccc2ccccc2n1)(Cn1ncnc1S)C1(Cl)CC1 (centres unmarked) [Example I-7]	LogP [3]: 1.60^[a]
2.53^[a]	OC(Cc1cc(Cl)cnc1Cl)(Cn1cncn1)C1(Cl)CC1 (centres unmarked) [XXI-88]	
1.60^[a]	OC(Cc1cc(Cl)ncc1F)(Cn1cncn1)c1ccc(Cl)nc1 (racemic) [XXI-47]	
2.23^[a]	OC(Cc1ccc(Cl)cn1)(Cn1cncn1)C1(Cl)CC1 (centres unmarked) [XXI-72]	
1.17^[a]	CC(C)(C)C(O)(Cc1ccnc2ccccc12)Cn1cncn1 (racemic) [XXI-107]	
	O=C(Cc1cccnc1Cl)C(CF)(CF)CF [Example V-25]	LogP [2]: 1.98^[a]
	CC(C)C(C)(C)C1(Cc2ccncc2Cl)CO1 (centres unmarked) [XII-30]	LogP [1]: 3.75^[a]
1.76^[a]	CC(C)(CCl)C(O)(Cc1ccncc1Cl)Cn1cncn1 (centres unmarked) [XXI-95]	LogP (pH 7.8): 1.96^[b];
	O=C(Cc1ccc(Cl)nc1)C1(Cl)CC1 [Example V-6]	LogP [2]: 2.34; LogP [4]: 2.30
1.18^[a]	CC(C)(C)C(O)(Cc1cnc2ccccc2c1)Cn1cncn1 (centres unmarked) [XXI-8]	
	CCC(C)(C)C1(Cc2ccncc2F)CO1 (centres unmarked) [XII-15]	LogP [1]: 2.76^[a]
	CC(C)(C)C(=O)Cc1ccc(Cl)nc1 [Example V-15]	LogP [2]: 2.47^[a]
2.82^[a]	CC(C)(C)C(O)(Cc1nc(Cl)ccc1Cl)Cn1cncn1 (racemic) [XXI-130]	
2.02^[a]	OC(Cc1ccnc(Cl)c1F)(Cn1cncn1)C1(Cl)CC1 (racemic) [XXI-65]	
2.73^[a]	OC(Cc1nc(Cl)ccc1Cl)(Cn1cncn1)C1(Cl)CC1 (racemic) [XXI-101]	
1.59^[a]	CC(C)(C)C(O)(Cc1ccnc2ccccc12)Cn1ncnc1S (centres unmarked) [Example I-9]	
1.31^[a]	OC(Cc1ccnnc1Cl)(Cn1cncn1)C1(Cl)CC1 (racemic) [XXI-50]	
	CC(C)(C)C1(Cc2c(Cl)cncc2Cl)CO1 (centres unmarked) [XII-52]	LogP [1]: 3.89^[a]

LogP (pH 2.7)	SMILES	also measured
1.10^[a]	OC(Cc1ccncn1)(Cn1cncn1)C1(Cl)CC1 (racemic) [XXI-55]	
2.07^[a]	OC(Cc1nccnc1I)(Cn1cncn1)C1(Cl)CC1 (racemic) [XXI-59]	
1.66^[a]	OC(Cc1cc(Cl)ncc1F)(Cn1cncn1)C1(F)CC1 (racemic) [XXI-46]	
3.00^[a]	CC(C)(C)C(O)(Cc1ccc(Cl)c(Cl)n1)Cn1ncnc1S (centres unmarked) [Example I-14]	
2.88^[a]	OC(Cc1cncc(Oc2ccc(Cl)cc2)n1)(Cn1cncn1)C1(Cl)CC1 (racemic) [XXI-61]	
1.98^[a]	CC(C)(C)C(O)(Cc1ccc(Cl)nc1)Cn1cncn1 (centres unmarked) [XXI-9]	LogP (pH 7.8): 1.98^[b];
1.87^[a]	CC(CF)(CF)C(O)(Cc1ccnc(Cl)c1F)Cn1cncn1 (racemic) [XXI-66]	
1.48^[a]	COC(C)(C)C(O)(Cc1ccncc1Cl)Cn1cncn1 (racemic) [XXI-123]	
2.78^[a]	CC(C)(C)C(O)(Cc1ccc(Cl)c(Cl)n1)Cn1cncn1 (racemic) [XXI-109]	
2.40^[a]	OC(CCc1ccc(Cl)cc1)(Cc1ccncc1Cl)Cn1cncn1 (centres unmarked) [XXI-74]	
	CC(C)(C)C(=O)Cc1ncc(Cl)cc1Cl [Example V-13]	LogP [2]: 3.33^[a]
2.16^[a]	CC(C)(C)C(O)(Cc1cc(Cl)ncc1F)Cn1cncn1 (racemic) [XXI-113]	
1.43^[a]	OC(Cc1ccncc1Cl)(CC1CC1)Cn1cncn1 (racemic) [XXI-127]	
1.86^[a]	OC(COc1ccc(F)cc1)(Cc1ccncc1Cl)Cn1cncn1 (centres unmarked) [XXI-84]	
2.30^[a]	CC(C)(C)C(O)(Cc1cccc(Cl)n1)Cn1cncn1 (racemic) [XXI-110]	
0.52^[a]	Cc1cccc(CC(O)(Cn2cncn2)C2(Cl)CC2)n1 (racemic) [XXI-53]	
	CC(C)(C)C1(Cc2cc(Cl)ncc2F)CO1 (centres unmarked) [XII-28]	LogP [1]: 3.42^[a]
2.39^[a]	OC(Cc1ccnc(Cl)c1Cl)(Cn1cncn1)C1(Cl)CC1 (centres unmarked) [XXI-87]	
1.51^[a]	CC(C)(C)C(O)(Cc1ccc2ccccc2n1)Cn1cncn1 (racemic) [XXI-105]	
1.37^[a]	OC(Cc1ccnc2ccccc12)(Cn1ncnc1S)C1(Cl)CC1 (centres unmarked) [Example I-12]	
	CC(C)(C)C1(Cc2ncc(Cl)cc2Cl)CO1 (centres unmarked) [XII-6]	LogP [1]: 4.06^[a]
	CC(C)(C)C1(Cc2ccnc(Cl)c2F)CO1 (centres unmarked) [XII-46]	LogP [1]: 3.37^[a]

LogP (pH 2.7)	SMILES	also measured
1.41^[a]	CC(C)(C)C(O)(Cc1ccncc1F)Cn1cncn1 (racemic) [XXI-103]	
2.16^[a]	CC(C)(C)C(O)(Cc1ccnc(Cl)c1F)Cn1cncn1 (racemic) [XXI-124]	
	CC(C)(C)C1(Cc2cccnc2Cl)CO1 (centres unmarked) [XII-9]	LogP [1]: 2.97; LogP (method [b]: pH 7.8, Table 4, formula (XII)): 2.96
0.52^[a]	Cc1ccnc(CC(O)(Cn2cncn2)C2(Cl)CC2)c1 (racemic) [XXI-57]	
	CC(C)(C)C(=O)Cc1cccnc1 [Example V-19]	LogP [2]: 0.41; LogP [4]: 1.71
1.20^[a]	CC(C)(F)C(O)(Cc1ccncc1Cl)Cn1cncn1 (centres unmarked) [XXI-81]	
1.96^[a]	OC(Cc1nccnc1Br)(Cn1cncn1)C1(Cl)CC1 (centres unmarked) [XXI-76]	
	CC(C)(C)C(=O)Cc1cnc2ccccc2c1 [Example V-14]	LogP [2]: 1.60^[a]
2.02^[a]	OC(Cc1cccc(Cl)c1)(Cc1ccnc(Cl)c1F)Cn1cncn1 (centres unmarked) [XXI-93]	
2.84^[a]	CC(C)(Oc1ccc(Cl)cc1)C(O)(Cc1ccncc1Cl)Cn1cncn1 (centres unmarked) [XXI-75]	
1.66^[a]	CC(CF)(CF)C(O)(Cc1ccnc(Cl)c1)Cn1cncn1 (racemic) [XXI-41]	
1.64^[a]	OC(Cc1cccnc1F)(Cn1cncn1)C1(Cl)CC1 (racemic) [XXI-56]	
	OC(Cc1ccncc1Cl)(Cn1cncn1)c1ccc2oc3ccccc3c2c1 (centres unmarked) [XXI-85]	LogP (method [a]: pH 2.7, 0.1% formic acid in water/acetonitrile, Table 2, formula (XXI)): 2.40^[a]
2.67^[a]	CCOC(=O)OC(Cc1cccnc1Cl)(Cn1cncn1)C(C)(C)C (racemic) [XXI-121]	LogP (pH 7.8): 2.56^[b];
2.48^[a]	CC(C)(Oc1ccc(F)cc1)C(O)(Cc1ccncc1Cl)Cn1cncn1 (centres unmarked) [XXI-96]	LogP (pH 7.8): 2.60^[b];
2.88^[a]	OC(Cc1ncc(Cl)cc1Cl)(Cn1cncn1)C1(Cl)CC1 (racemic) [XXI-102]	
2.13^[a]	CCC(C)(C)C(O)(Cc1ccncc1Cl)Cn1cncn1 (centres unmarked) [XXI-12]	
2.00^[a]	CC(C)CCC(O)(Cc1ccncc1Cl)Cn1cncn1 (racemic) [XXI-128]	
2.02^[a]	OC(Cc1cc(Cl)ccn1)(Cn1cncn1)C1(Cl)CC1 (racemic) [XXI-52]	
1.23^[a]	OC(Cc1ccnc(Cl)c1F)(Cn1cncn1)C1(F)CC1 (centres unmarked) [XXI-92]	
1.88^[a]	COc1nccnc1CC(O)(Cn1cncn1)C1(Cl)CC1 (centres unmarked) [XXI-77]	

SMILES	LogP (pH 2.7)	also measured
OC(Cc1ccncc1F)(Cn1ncnc1S)C1(F)CC1 (centres unmarked) [Example I-21]	1.29^[a]	
OC(Cc1cccnc1Cl)(Cn1ncnc1S)C1(Cl)CC1 (centres unmarked) [Example I-4]	2.15^[a]	
CCC(C)(C)C(O)(Cc1ccncc1Cl)Cn1ncnc1S (centres unmarked) [Example I-20]	2.50^[a]	
CC1(C(O)(Cc2cccnc2Cl)Cn2ncnc2S)CC1 (centres unmarked) [Example I-15]	2.14^[a]	
CC(C)(C)C(O)(Cc1cccnc1Cl)Cn1ncnc1S (centres unmarked) [Example I-1]	2.31^[a]	
CC(C)(C)C(O)(Cc1ccncc1F)Cn1ncnc1S (centres unmarked) [Example I-18]	1.79^[a]	
